# Reference: patent US12509448B2, “Salts of indoleamine 2,3-dioxygenase inhibitors” (INVENTISBIO CO., LTD., priority 2019, dated 2025)
# “Also recorded” adds a separate entry of the source. Where a name gives a salt, the structure may show the parent alone.
# Legend:
# [1] = Solid stability test at 40° C./75% RH (HPLC, XRPD); assay type: physicochemical; details: for physical and chemical stability (XRPD and HPLC): 40° C./75% RH during testing period (9 days; HCl salt 7 days); for Purity (% Area) Initilal: solid stability test, 0 days
# Experimental: (§1) HPLC ANALYSIS: a representative HPLC method is shown below, which can be used, for example, to analyze the purity, solubility, and stability of the salts herein.
# Stability test: About 15 mg of Compound 1 (Form II), and K salt (Form III) were weighed into vials, and put at the condition of 40° C./75% RH for 9 days. At 0 and 9 days, the solid sample was dissolved using methanol/water (1/1) to make a solution with a concentration of 0.2 mg/mL. Sample solutions were analyzed by HPLC and solid samples were examined by XRPD.
# About 15 mg of Compound 1 HCl salt (Form I) was weighed into vials, and put at the condition of 40° C./75% RH for 7 days. At 0 and 7 days, the solid sample was dissolved using methanol/water (1/1) to make a solution with the concentration of 0.2 mg/mL. The sample solution was analyzed by HPLC and solid sample was analyzed by XRPD.
# K salt and Compound 1 was stored at 40° C./75% RH for 9 days, while HCl salt was stored for 7 days.
# [2] = Dynamic moisture sorption analysis (DVS); assay type: physicochemical; details: for moisture adsorbed in DVS test: at 80% RH
# Experimental: Dynamic moisture sorption analysis (DVS): DVS was determined using IGAsorp (Hiden Isochema, UK). The sample was tested at a targeted RH of 10 to 90% full cycle in step mode. The analysis was performed in 10% RH increments.
# [3] = Grinding of Form I (XRPD); assay type: physicochemical; details: grinded for 2 min and 5 min
# Experimental: Form I of the HCl salt was grinded for 2 min and 5 min.
# [4] = Stability of HCl salt Form I in water and in solvent; assay type: physicochemical
# [5] = Physical stability of Form I under heat and high humidity (XRPD); assay type: physicochemical; details: for crystalline form by XRPD after storage at high humidity: 25° C./92.5% RH for 10 days; for crystalline form by XRPD after storage under heat: 60° C. for 10 days
# Experimental: Samples of HCl salt Form I was put into the condition of 92.5% RH or 60° C. for 10 days. Then the sample was analyzed by XRPD. […] XRPD patterns were shown in FIG. 1C (92.5% RH for 10 days) and FIG. 1D (60° C. for 10 days).
# [6] = Solubility test in pH 1.2, 6.8 and 7.4 buffers (HPLC, pH of filtrate, XRPD of remaining solid); assay type: physicochemical; details: for change of pH of the buffer solutions: HCl salt: pH 6.8 and 7.4 buffer solutions, K salt: buffers; for solubility compared with Compound 1: buffer solutions; for remaining solid by XRPD: pH 1.2 buffer solution
# Experimental: as §1
# Solubility test: About 15-20 mg of Compound 1 (Form II), K salt (Form III) and HCl salt (Form I) were weighed into vials, and then added 1.5 mL of pH 1.2, pH 6.8 or pH 7.4 buffer to make saturated solutions.
# All suspensions were kept shaking with 200 rpm at room temperature for up to 24 hours. At 30 min and 24 hours, the sample solution was filtered and analyzed by HPLC to determine the solubility. The pH of filtrates was also measured. At 24 hours, remaining solids were collected and determined by XRPD.
# First, the solubility of Compound 1, HCl salt and K salt was tested in pH 1.2, 6.8 and 7.4 buffer solutions at 25° C. for 30 min and 24 hours. The solubility data and pH value of filtrate were listed in Table 6 and Table 7, respectively.
# Additional solubility of Compound 1 and the HCl salt was tested in pH 6.8 and 7.4 for 30 min and 2 hours.
# [7] = tested on: human hepatocyte; details: compared to INCB-24360 and others of WO2014150677 and WO2014150646; cited from earlier work
# [8] = additional test (Table 8), pH 6.8 buffer
# [9] = additional test (Table 8), pH 6.8 buffer, 2 hours
# [10] = additional test (Table 8), pH 7.4 buffer
# [11] = additional test (Table 8), pH 7.4 buffer, 2 hours
# [12] = pH 6.8 buffer, 24 hours, 25° C.
# [13] = pH 7.4 buffer, 24 hours, 25° C.
# [14] = pH 1.2 buffer, 24 hours, 25° C.
Compound,physical and chemical stability (XRPD and HPLC) [1],Purity (% Area) Initilal [1] [% Area],XRPD pattern after DVS test [2],change of pH of the buffer solutions [6],"Solubility (mg/mL) 30 min [6, 8] [mg/mL]","Solubility (mg/mL) 2 hours [6, 9] [mg/mL]","Solubility (mg/mL) 30 min [6, 10] [mg/mL]","Solubility (mg/mL) 2 hours [6, 11] [mg/mL]",solubility compared with Compound 1 [6],pH value of filtrate 30 min ([6]; pH 1.2 buffer),"Solubility (mg/mL) 30 min ([6]; pH 1.2 buffer, 25° C.) [mg/mL]","pH value of filtrate 24 hours ([6]; pH 1.2 buffer, 24 hours)",pH value of filtrate 30 min ([6]; pH 6.8 buffer),"Solubility (mg/mL) 30 min ([6]; pH 6.8 buffer, 25° C.) [mg/mL]","pH value of filtrate 24 hours ([6]; pH 6.8 buffer, 24 hours)","Solubility (mg/mL) 24 hours [6, 12] [mg/mL]",pH value of filtrate 30 min ([6]; pH 7.4 buffer),"Solubility (mg/mL) 30 min ([6]; pH 7.4 buffer, 25° C.) [mg/mL]","pH value of filtrate 24 hours ([6]; pH 7.4 buffer, 24 hours)","Solubility (mg/mL) 24 hours [6, 13] [mg/mL]",other results
CCN(c1ncc(C2(C(=O)O)CCC2)cc1Nc1ccc(Cl)cc1)C1CCOCC1 [HCl salt],physically and chemically stable,99.81,not changed,obviously decreased,1.62,0.95,3.41,3.53,higher solubility than Compound 1; also recorded: more soluble than Compound 1,1.10,0.58,1.17,6.59,1.45,3.34,0.02,7.02,3.66,6.06,0.49,"Purity (% Area) 7 days ([1]; solid, 40° C./75% RH, 7 days): 99.78 % Area; XRPD pattern after DVS test ([2]; listed as Form I): remained unchanged; crystalline form by XRPD after grinding [3]: still Form I; degradation in solvent ([4]; in THE at 60° C.): can be degraded; dissociation in water ([4]; in water): can dissociate to Compound 1; crystalline form by XRPD after storage at high humidity [5]: unchanged; crystalline form by XRPD after storage at high humidity ([5]; listed as Form I): remained unchanged; crystalline form by XRPD after storage under heat [5]: unchanged; crystalline form by XRPD after storage under heat ([5]; listed as Form I): remained unchanged; solubility at 24 h ([6]; pH 1.2 buffer, 25 °C, pH 1.2, simulated gastric fluid, thermodynamic from solid, pH 1.2 buffer, 24 hours, 25° C., read-out: Solubility (mg/mL) 24 hours): 0.65 mg/mL; change of solubility with time ([6]; pH 6.8 and 7.4 buffers at 24 hours): obviously decreased; solid by XRPD ([6]; pH 6.8 and 7.4 buffers, 2 hours): part of HCl salt had been changed to be Compound 1; change of solubility with time ([6]; pH 6.8 buffer at 2 hours): decreased; change of solubility with time ([6]; pH 7.4 buffer, 2 hours versus 30 min): almost constant"
CCN(c1ncc(C2(C(=O)O)CCC2)cc1Nc1ccc(Cl)cc1)C1CCOCC1 [Na salt],,,changed,,,,,,,,,,,,,,,,,,XRPD pattern after DVS test ([2]; listed as Form IV): changed into a different form; moisture adsorbed in DVS test [2]: 30.84%; moisture adsorbed in DVS test ([2]; listed as sodium salt): about 30%
CCN(c1ncc(C2(C(=O)O)CCC2)cc1Nc1ccc(Cl)cc1)C1CCOCC1 [K salt],physically and chemically stable,99.80,,increased,,,,,much higher; also recorded: higher solubility than Compound 1,1.18,9.52,1.23,6.84,2.55,7.46,0.55,7.62,6.38,8.02,2.25,"Purity (% Area) 9 days ([1]; solid, 40° C./75% RH): 99.79 % Area; XRPD pattern after DVS test ([2]; listed as potassium salt): not changed; moisture adsorbed in DVS test ([2]; listed as potassium salt): 1.32%; solubility compared with Compound 1 ([6]; listed as potassium salt): more soluble than Compound 1; remaining solid by XRPD ([6]; 24 hours): changed into HCl salt; Solubility (mg/mL) 24 hours [6, 14]: 0.71 mg/mL"
"CCN(c1ncc(C2(C(=O)O)CCC2)cc1Nc1ccc(Cl)cc1)C1CCOCC1 [Compound 1, 1-(5-((4-chlorophenyl)amino)-6-(ethyl(tetrahydro-2H-pyran-4-yl)amino)pyridin-3-yl)cyclobutane-1-carboxylic acid]",physically and chemically stable,99.53,not changed,,0.11,0.12,0.39,0.44,,1.11,0.49,1.16,6.87,0.13,6.81,0.04,7.39,0.44,7.38,0.50,"Purity (% Area) 9 days ([1]; solid, 40° C./75% RH): 99.53 % Area; XRPD pattern after DVS test ([2]; listed as Form II): remained unchanged; moisture adsorbed in DVS test [2]: about 0.37%; human hepatocyte clearance compared to other IDO inhibitors [7]: better human hepatocyte clearance; remaining solid by XRPD ([6]; 24 hours): changed into HCl salt; Solubility (mg/mL) 24 hours [6, 14]: 0.51 mg/mL"
